# Structures can show the parent of a compound that is named as a salt. Where two headings read alike, the source gives them in different places.
# Tests used:
# [1] = man, oral; cited from earlier work
# [2] = tested on: E. coli; assay: Therapeutic efficacy as mutual pro-drugs or mixtures, oral, infected mice (Table 12); assay type: in vivo; details: Escherichia coli, pro-drugs and their mixtures 50:38, read-out: PD50/Treatment
# Description: (§1) ^a Treatment schedule: Mice were infected i.p. with about 5 ×
# (§2) 10^6 organisms of E. coli in 4% mucin and 1 × 10^9 of S.
# (§3) aureus in 2% mucin. Drugs were administered p.o. at 0 and 2 hour
# (§4) ^b Mutual ProDrugs: BLP2048 (hetacillin: BLP2013) and BLP2049
# (§5) (hetaamoxicillin: BLP2013) as well as their respective mixtures were
# (§6) administered in a 50:38 ratio. PD50 values are averages of 2 to 3
# (§7) tests for E. coli and 1 to 2 tests for S. aureus.
# (§8) averages of 1 to 2 tests for E. coli and a single test for S. aureus.
# [3] = tested on: S. aureus; assay: as above; assay type: in vivo; details: Staphylococcus aureus, pro-drugs and their mixtures 50:38, read-out: PD50/Treatment
# Description: as §1, §2, §3, §4, §5, §6, §7, §8
# [4] = in vivo; details: mouse, po
# Source text: Compounds were solubilized in propylene glycol, except for the Hetacillin
# [5] = tested on: E. coli A9675; assay: Therapeutic efficacy of BL-P2043, BL-P2044 and components, oral, infected mice (Table 13); assay type: in vivo; details: Escherichia coli, po; E. coli A9675, p.o.; pro-drugs and mixtures 50:38; read-out: PD50/Treatment
SMILES,absorption from the gastro-intestinal tract [1],blood and tissue levels of antibiotic and β-lactamase inhibitor [1],hydrolysis after absorption [1],"ED50 ([2]; E. coli A20649, p.o.) [mg/kg]","ED50 ([2]; E. coli A21223, p.o.) [mg/kg]","ED50 ([2]; E. coli A-9675, p.o.) [mg/kg]","ED50 ([3]; S. aureus A20379, p.o.) [mg/kg]","ED50 ([3]; S. aureus A-9606, p.o.) [mg/kg]","Blood Level ([4]; 38 mg/kg, 15 min) [ng/mL]","Blood Level ([4]; 38 mg/kg, 120 min) [ng/mL]","Blood Level ([4]; 38 mg/kg, 150 min) [ng/mL]","Blood Level ([4]; 50 mg/kg, 15 min) [ng/mL]",ED50 [5] [mg/kg],further results
CC1(C)S[C@@H]2[C@H](NC(=O)[C@H](N)c3ccccc3)C(=O)N2[C@H]1C(=O)OCOC(=O)[C@@H]1N2C(=O)C[C@H]2S(=O)(=O)C1(C)C [ester 3],excellently absorbed from the gastro-intestinal tract,high blood and tissue levels of antibiotic and β-lactamase inhibitor in a balanced ratio,hydrolyzed with simultaneous liberation of the active components,–,–,–,–,–,–,–,–,–,–,–
"CC1(C)SC2C(N3C(=O)C(c4ccc(O)cc4)NC3(C)C)C(=O)N2C1C(=O)OCOC(=O)C1N2C(=O)CC2S(=O)(=O)C1(C)CCl [BL-P2049, 2β-Chloromethyl-2α-methyl-1,1-dioxopenam-3-carbonyloxymethyl 6-[D-2,2-dimethyl-5-oxo-4-(4-hydroxyphenyl)-1-imidazolidinyl]-penicillanate Hydrochloride]",–,–,–,43,32,28,> 400,> 374,4100,1600,1200,3700,–,"Blood Level ([4]; 38 mg/kg, 30 min): 4600 ng/mL; Blood Level ([4]; 38 mg/kg, 60 min): 3100 ng/mL; Blood Level ([4]; 38 mg/kg, 90 min): 2200 ng/mL; Blood Level ([4]; 50 mg/kg, 30 min): 4700 ng/mL; Blood Level ([4]; 50 mg/kg, 60 min): 4700 ng/mL; Blood Level ([4]; 50 mg/kg, 90 min): 4100 ng/mL; Blood Level ([4]; 50 mg/kg, 120 min): 3700 ng/mL; Blood Level ([4]; 50 mg/kg, 150 min): 3300 ng/mL"
"CC1(C)SC2C(NC(=O)C(N)c3ccc(O)cc3)C(=O)N2C1C(=O)OCOC(=O)C1N2C(=O)CC2S(=O)(=O)C1(C)CCl (single isomer, unassigned) [BL-P2044, Hydrochloride]",–,–,–,–,–,–,–,–,–,–,–,–,25,–
CC1(C)S[C@@H]2[C@H](N=CN3CCCCCC3)C(=O)N2[C@H]1C(=O)OCOC(=O)[C@@H]1N2C(=O)C[C@H]2S(=O)(=O)C1(C)C [ester 4],excellently absorbed from the gastro-intestinal tract,high blood and tissue levels of antibiotic and β-lactamase inhibitor in a balanced ratio,hydrolyzed with simultaneous liberation of the active components,–,–,–,–,–,–,–,–,–,–,–
"CC1(C)SC2C(N3C(=O)C(c4ccccc4)NC3(C)C)C(=O)N2C1C(=O)OCOC(=O)C1N2C(=O)CC2S(=O)(=O)C1(C)CCl [BL-P2048, 2β-Chloromethyl-2α-methyl-1,1-dioxopenam-3-carbonyloxymethyl 6-(D-2,2-dimethyl-5-oxo-4-phenyl-1-imidazolidinyl)penicillanate Hydrochloride]",–,–,–,89,32,49,400,274,10000,900,600,8000,–,–
"CC1(C)SC2C(NC(=O)C(N)c3ccccc3)C(=O)N2C1C(=O)OCOC(=O)C1N2C(=O)CC2S(=O)(=O)C1(C)CCl [BL-P2043, 6-[(R)-2-Amino-2-phenylacetamido]-3,3-dimethyl-7-oxo-4-thia-1-azabicyclo[3.2.0]heptane-2-carbonyloxymethyl 2β-chloromethyl-2-α-methylpenam-3α-carboxylate sulfone]",–,–,–,–,–,–,–,–,–,–,–,–,44,–

# Source: patent US4380512A, “2β-Chloromethyl-2α-methylpenam-3α-carboxylic acid sulfone and salts and esters thereof” (Bristol-Myers Company, priority 1981, dated 1983)
